Experimental findings from patent US5811454A (priority 1993, dated 1998) are described below.

Each structure is given as a SMILES string. pIC50: −log10 of the molar value. “Also recorded” adds a separate entry of the source. Read-outs that look alike come from different tables or passages of the source.

As usually defined, the pIC50 is −log10 of the IC50, conventionally taken in molar units.

For data set [1] the following is noted: ph stat, naoh titration.
Data set [2] relates to colorectal cell line LS174T. Put plainly: cells. Conditions: Homo sapiens, 1 h.
Data set [3] concerns colorectal cell line LS174T.
Data set [4] addresses CPG2 (Pseudomonas sp., UniProt P06621). The class given is biochemical, bacterial.

Sequence of CPG2 (P06621 23-415): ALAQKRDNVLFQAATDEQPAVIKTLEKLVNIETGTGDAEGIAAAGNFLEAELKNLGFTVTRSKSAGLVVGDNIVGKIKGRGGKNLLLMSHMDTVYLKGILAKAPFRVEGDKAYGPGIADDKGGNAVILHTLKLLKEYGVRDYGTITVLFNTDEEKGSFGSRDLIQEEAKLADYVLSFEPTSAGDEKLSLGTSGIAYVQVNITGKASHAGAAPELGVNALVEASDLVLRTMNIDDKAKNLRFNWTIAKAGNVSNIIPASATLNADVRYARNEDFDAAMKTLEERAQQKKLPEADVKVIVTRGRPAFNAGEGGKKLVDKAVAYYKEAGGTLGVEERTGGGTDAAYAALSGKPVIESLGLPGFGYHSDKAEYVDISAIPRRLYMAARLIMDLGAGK

Turning to `CS(=O)(=O)OCCN(CCCl)c1ccc(C(=O)O)cc1` [Compound 29, reference compound], in data set [1], the “Active Drug t1/2 (chemical half-life)” value amounted to 58 min. For the same compound, in data set [2] (read-out: Active Drug IC50), the pIC50 is 3.73.

For the compound `O=C(O)CC[C@H](NC(=O)c1ccc(N(CCCl)CCCl)cc1F)C(=O)O` [Compound 9, 2-fluoro, 4-[bis(2-chloroethyl)amino]benzoyl-L-glutamic acid], the pIC50 in data set [3] (read-out: Prodrug + CPG2 IC50) was less than 3.10. Further, the pIC50 in data set [3] (read-out: Prodrug IC50) is less than 3.10. Also, in data set [4], the “Ability of prodrug to act as CPG2 substrate (in words)” value (“Ability of prodrug to act” below) is listed as “good substrates” and the kcat worked out at 462 S^-1.

`CS(=O)(=O)OCCN(CCOS(C)(=O)=O)c1ccc(C(=O)N[C@@H](CCC(=O)O)C(=O)O)c(F)c1` [Compound 7, 2-fluoro, 4-[bis-[2-(mesyloxy)ethyl]amino]benzoyl-L-glutamic acid]: the pIC50 in data set [2] (read-out: Prodrug + CPG2 IC50) and in data set [2] (read-out: Prodrug IC50) was less than 3.10 each time. Moreover, the “Ability of prodrug to act” value in data set [4] was “such a poor substrate that it was not possible to measure its kinetics; also recorded: very poor substrate”.

Regarding `CS(=O)(=O)OCCN(CCCl)c1ccc(C(=O)N[C@@H](CCC(=O)O)C(=O)O)cc1F` [Compound 20, 3-fluoro, 4-[(2-chloroethyl)[2-(mesyloxy)ethyl]amino]benzoyl-L-glutamic acid], in data set [1], the “Prodrug t1/2 (chemical half-life)” value is recorded as 122 min. For the same compound, the pIC50 in data set [2] (read-out: Prodrug + CPG2 IC50) is 3.46; in data set [2] (read-out: Prodrug IC50), less than 3.10. Also, the “Ability of prodrug to act” value in data set [4] is given as “good substrates”.

Regarding `CS(=O)(=O)OCCN(CCOS(C)(=O)=O)c1ccc(C(=O)N[C@@H](CCC(=O)O)C(=O)O)cc1F` [Compound 19], the pIC50 was 3.32 in data set [2] (read-out: Prodrug + CPG2 IC50) and less than 3.10 in data set [2] (read-out: Prodrug IC50). For the same compound, the “Ability of prodrug to act” value in data set [4] is recorded as “good substrates”.

Turning to `CS(=O)(=O)OCCN(CCOS(C)(=O)=O)c1ccc(C(=O)N[C@@H](CCC(=O)O)C(=O)O)cc1` [Compound 25, reference compound], the “Prodrug t1/2 (chemical half-life)” value in data set [1] is reported as 42 min.

As to `CS(=O)(=O)OCCN(CCCl)c1ccc(C(=O)O)cc1F` [Compound 23], the “Active Drug t1/2 (chemical half-life)” value in data set [1] is listed as 2.4 min. In addition, the pIC50 in data set [2] (read-out: Active Drug IC50) is 3.55.

Take `O=C(O)CC[C@H](NC(=O)c1ccc(N(CCCl)CCCl)c(F)c1)C(=O)O` [Compound 21, 3-fluoro, 4-[bis(2-chloroethyl) ,amino] benzoyl-L-glutamic acid]: the pIC50 in data set [3] (read-out: Prodrug + CPG2 IC50) was 3.41; in data set [3] (read-out: Prodrug IC50), less than 3.10. Also, the “Ability of prodrug to act” value in data set [4] is recorded as “good substrates”. Besides, in data set [4], the kcat is on record as 1028 S^-1.

For the compound `CS(=O)(=O)OCCN(CCCl)c1ccc(C(=O)N[C@@H](CCC(=O)O)C(=O)O)cc1` [Compound 26, 4[(2chloroethyl)[2(mesyloxy)ethyl]amino]benzoylL-glutamic acid, reference compound], the “Prodrug t1/2 (chemical half-life)” value in data set [1] is recorded as 984 min. The results for the negative-log IC50 (pIC50) in data set [2] (read-out: Prodrug + CPG2 IC50) and in data set [2] (read-out: Prodrug IC50) were 3.70 and less than 3.10, respectively. In addition, the “Prodrug activity (increased cytotoxicity on conversion by CPG2)” value in data set [3] is “substantial prodrug activity”.

`CS(=O)(=O)OCCN(CCCl)c1ccc(C(=O)O)c(F)c1` [Compound 11]: the “Active Drug t1/2 (chemical half-life)” value in data set [1] is 192 min. For the same compound, the pIC50 in data set [2] (read-out: Active Drug IC50) was less than 3.10.

For `CS(=O)(=O)OCCN(CCCl)c1ccc(C(=O)N[C@@H](CCC(=O)O)C(=O)O)c(F)c1` [Compound 8, 2-fluoro, 4-[(2-chloroethyl)[2-(mesyloxy)ethyl]amino]benzoyl-L-glutamic acid], the pIC50 in data set [2] (read-out: Prodrug + CPG2 IC50) and in data set [2] (read-out: Prodrug IC50) was less than 3.10 throughout. Further, the “Ability of prodrug to act” value in data set [4] is “good substrates”.

As to `CS(=O)(=O)OCCN(CCOS(C)(=O)=O)c1ccc(C(=O)O)cc1F` [Compound 22], in data set [1], the “Active Drug t1/2 (chemical half-life)” value is given as 1.9 min. For the same compound, in data set [2] (read-out: Active Drug IC50), the pIC50 is 3.32.
